Experimental data published in article PMC10649961, “Novel Mitochondria-Targeted Amphiphilic Aminophosphonium Salts and Lipids Nanoparticles: Synthesis, Antitumor Activity and Toxicity” (Nanomaterials, 2023).
Where two headings read alike, the source gives them in different places. Where a SMILES comes first, the peptide text is derived from it. [ ]: non-standard residue; d: D form. Orn = NCCC[C@H](N)C(=O)O

Key:
[1] = test system: human volunteer donor erythrocytes; test: Hemolytic assay; assay type: cell-based; conditions: hemolysis in 50% of human erythrocytes, 1 h, 37 °C
Description: The hemolytic activity of Aminophosphonium Salts was assessed by comparing the optical density of a solution containing the test compound with the optical density of blood at 100% hemolysis. Healthy human volunteer donor erythrocytes were used as the object of the study. Red blood cells with EDTA (1.8 mg/mL) were washed three times with saline (0.9% NaCl), centrifuged for 10 min at 800× g rpm, and resuspended in saline (0.9% NaCl) to a concentration of 10%. The tested concentrations (0.1–100 μM) were prepared in physiological solution (0.9% NaCl) (with the addition of 5% DMSO). Compounds at the appropriate dilution (450 μL) were added to 50 μL of a 10% red blood cell suspension. Samples were incubated for 1 h at 37 °C and centrifuged for 10 min at 2000 rpm. The release of hemoglobin was controlled by measuring the optical density of the supernatant on an InvitroLogic microplate reader at λ = 540 nm. A control sample corresponding to zero hemolysis (blank experiment) was prepared by adding 50 μL of a 10% red blood cell suspension to 450 μL of saline (0.9% NaCl). A control sample corresponding to 100% hemolysis was prepared by adding 50 μL of a 10% red blood cell suspension to 450 μL of distilled water. Blood was taken at the Clinic of the Federal Research Center “Kazan Scientific Center of the Russian Academy of Sciences” from healthy donors with their personal consent.

[2] = test system: Staphylococcus aureus ATCC 6538 P FDA 209P; test: Antimicrobial activity, serial microdilutions, Sa; assay type: cell-based; conditions: Staphylococcus aureus; for MIC: read-out: Minimum Inhibitory Concentration (MIC); for MBC: read-out: Minimum bactericidal and fungicidal concentrations (MBC, MFC)
Method in brief: (§1)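 Compounds were serially diluted in broth: Mueller-Hinton for the bacterial strains, Sabouraud for the yeast. Each determination was done in triplicate.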

[3] = test system: Bacillus cereus ATCC 10702 NCTC 8035; test: Antimicrobial activity, serial microdilutions, Bc; assay type: cell-based; parameters: key to Minimum bactericidal and fungicidal concentrations (MBC, MFC): – means non-active; conditions: for MIC: read-out: Minimum Inhibitory Concentration (MIC)
Method in brief: (§2)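 Activity was read from serial microdilutions, with bacteria grown in Mueller-Hinton broth and Candida in Sabouraud broth. The MRSA-1 strain came from a patient with chronic tonsillitis.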

[4] = test system: Enterococcus faecalis ATCC 29212; test: Antimicrobial activity, serial microdilutions, Ef; assay type: cell-based; conditions: Enterococcus faecalis; for MIC: ATCC29212, read-out: Minimum Inhibitory Concentration (MIC); for MBC: ATCC29212, read-out: Minimum bactericidal and fungicidal concentrations (MBC, MFC)
Method in brief: as §1

MRSA-1 = test: Antimicrobial activity, serial microdilutions, MRSA-1; assay type: cell-based, S. aureus; parameters: key to Minimum Inhibitory Concentration (MIC) / Minimum bactericidal and fungicidal concentrations (MBC, MFC): – means non-active; conditions: for MIC: read-out: Minimum Inhibitory Concentration (MIC)
Method in brief: as §2

MRSA-2 = test: Antimicrobial activity, serial microdilutions, MRSA-2; assay type: cell-based, S. aureus; conditions: Staphylococcus aureus; for MIC: read-out: Minimum Inhibitory Concentration (MIC); for MBC: read-out: Minimum bactericidal and fungicidal concentrations (MBC, MFC)
Method in brief: as §1

[5] = test system: Escherichia coli ATCC 25922; test: Antimicrobial activity, serial microdilutions, Ec; assay type: cell-based; parameters: key to Minimum Inhibitory Concentration (MIC) / Minimum bactericidal and fungicidal concentrations (MBC, MFC): – means non-active
Method in brief: as §2

[6] = test system: Pseudomonas aeruginosa ATCC 9027; test: Antimicrobial activity, serial microdilutions, Pa; assay type: cell-based; parameters: key to Minimum Inhibitory Concentration (MIC) / Minimum bactericidal and fungicidal concentrations (MBC, MFC): – means non-active
Method in brief: as §2

[7] = test system: Candida albicans ATCC 10231; test: Antimicrobial activity, serial microdilutions, Ca; assay type: cell-based; parameters: key to Minimum Inhibitory Concentration (MIC) / Minimum bactericidal and fungicidal concentrations (MBC, MFC): – means non-active; conditions: Ca
Method in brief: as §2

[8] = In vivo acute toxicity, single intraperitoneal injection; parameters: species or system mice; conditions: male, CD-1, mouse, in vivo, ip, male CD-1 mice, single intraperitoneal administration, 14 days, Probit analysis
Description: (§3) The study of acute toxicity was performed on males of outbred white mice of the CD-1 line at the age of 2–3 months, weighing 20–30 g. The total number of mice participating in the experiment was 300. Mice were obtained from the Research and Production Enterprise Laboratory Animal Farm based at the Branch of Shemyakin and Ovchinnikov Institute of Bioorganic Chemistry of the Russian Academy of Sciences (Pushchino, Russia). The animals were kept in accordance with in standard conditions in a vivarium with 12 h of daylight and free access to food and water. The animals were fed complete feed made according to specifications (protein 22%, fiber 4% max., fat 5% max, ash 9% max, humidity 13.5% max, caloric value 295 kcal/100 g). The studies were conducted with a single parenteral–intraperitoneal (intra-peritoneal) injection, according to the method.
(§4) The substances were introduced in a sterile saline DMSO (40% vol.) solution. Solutions of the substances were prepared immediately before administration. The total volume of the injected liquid was 0.1 mL/10 g of animal weight. As a control, a group of mice was administered under similar conditions an equivalent amount (0.1 mL/10 g, or 10 mL/kg) of a solvent—40% DMSO on sterile saline solution. The substances were administered in doses ranging from 1 to 100 mg/kg; there were six animals in each group. To assess acute toxicity, the animals were monitored 14 days after administration of the substance, assessing their general condition and recording deaths.
(§5) The study of the acute toxicity parameters of six aminophosphonium salts 4a, 4b, 4d, 5a, 5b, and 6b was performed on male outbreed white mice of the CD-1 line. Acute toxicity was determined with a single parenteral (intraperitoneal) administration in sterile saline/DMSO (40% vol.) solution at doses from 1 to 100 mg/kg. To assess acute toxicity, the animals were monitored for 14 days after the introduction of substances, assessing their general condition and recording deaths. Next, lethal doses LD50, LD0, LD16, LD84, and LD100 were calculated using the Probit analysis method. LD0, LD16, LD84, and LD100 are given in Supplementary Material (Table S1).

mice of the CD-1 line = test: as above
Description: as §3, §4, §5

M-HeLa [9] = test system: M-HeLa
MCF-7 [10] = test system: MCF-7
HuTu 80 [11] = conditions: calculated relative to the cell line Chang liver (b)
PANC-1 [12] = conditions: calculated relative to the cell line Chang liver (b)
A549 [13] = conditions: reference normal cell line not marked at the place (ns cells)
PC3 [14] = conditions: reference normal cell line not marked at the place (ns cells)
T98G [15] = test system: T98G
Hep G2 [16] = test system: Hep G2
SK-OV-3 [17] = conditions: reference normal cell line not marked at the place (ns cells)
DU-145 [18] = test system: DU-145
M-HeLa [19] = test: cells; conditions: Homo sapiens, 48 h, read-out: Cytotoxic Effects (IC50)
MCF-7 [20] = test: cells; conditions: Homo sapiens, MCF7, 48 h, read-out: Cytotoxic Effects (IC50)
HuTu 80 [21] = test: cells; conditions: Homo sapiens, HuTu80, 48 h, read-out: Cytotoxic Effects (IC50)
PANC-1 [22] = test: cells; conditions: Homo sapiens, PANC-1, 48 h, read-out: Cytotoxic Effects (IC50)
A549 [23] = test: cells; conditions: Homo sapiens, A549, 48 h, read-out: Cytotoxic Effects (IC50)
PC3 [24] = test: cells; conditions: Homo sapiens, PC-3, 48 h, read-out: Cytotoxic Effects (IC50), PC3, MTT assay, 48 h
T98G [25] = test: cells; conditions: Homo sapiens, 48 h, read-out: Cytotoxic Effects (IC50)
Hep G2 [26] = test: cells; conditions: Homo sapiens, HepG2, 48 h, read-out: Cytotoxic Effects (IC50)
SK-OV-3 [27] = test: cells; conditions: Homo sapiens, SK-OV-3, 48 h, read-out: Cytotoxic Effects (IC50)
DU-145 [28] = test: cells; conditions: Homo sapiens, DU-145, 48 h, read-out: Cytotoxic Effects (IC50), DU-145, MTT assay, 48 h
[29] = reference normal cell line not marked at the place (ns cells)
[30] = calculated relative to the cell line Chang liver (b)

| SMILES | MIC [2] | MBC [2] | MIC ([3]; Bacillus cereus, Bc) | MIC [4] | MBC [4] | MIC (MRSA-1; Staphylococcus aureus) | MIC (MRSA-2) | MBC (MRSA-2) | Minimum Inhibitory Concentration (MIC) [6] | Minimum Inhibitory Concentration (MIC) [7] | Minimum bactericidal and fungicidal concentrations (MBC, MFC) [7] | selectivity index (SI) (HuTu 80 [11]) | selectivity index (SI) (PANC-1 [12]) | selectivity index (SI) (A549 [13]) | selectivity index (SI) (PC3 [14]) | selectivity index (SI) (SK-OV-3 [17]) | IC50 (M-HeLa [19]) | IC50 (MCF-7 [20]) | IC50 (HuTu 80 [21]) | IC50 (PANC-1 [22]) | also measured |
| --- | --- | --- | --- | --- | --- | --- | --- | --- | --- | --- | --- | --- | --- | --- | --- | --- | --- | --- | --- | --- | --- |
| CC(C)C[C@@H]1NC(=O)[C@H](CCCN)NC(=O)[C@H](C(C)C)NC(=O)[C@@H]2CCCN2C(=O)[C@@H](Cc2ccccc2)NC(=O)[C@H](CC(C)C)NC(=O)[C@H](CCCN)NC(=O)[C@H](C(C)C)NC(=O)[C@@H]2CCCN2C(=O)[C@@H](Cc2ccccc2)NC1=O [Gramicidin S, reference compound] (cyclo(L[dF]PV[Orn]L[dF]PV[Orn])) |  |  |  |  |  |  |  |  |  |  |  |  |  |  |  |  |  |  |  |  | HC50 [1]: 9.4 ± 0.8 µM |
| CCCCCC[P+](N(CC)CC)(N(CC)CC)N(CC)CC [4a, Tris(diethylamino)(hexyl)phosphonium iodide] | 62.5 ± 5.2 µM | 250 ± 20 µM | 62.5 ± 5.3 µM | 250 ± 21 µM | 500 ± 46 µM | 125 ± 10 µM | 125 ± 11 µM | 125 ± 10 µM | – | – | – | 1.6 | 1.1 | ns (ns—no selectivity) | ns (ns—no selectivity) | ns (ns—no selectivity) | 52.4 ± 3.7 µM | 26 ± 1.8 µM | 11.4 ± 0.9 µM | 16.1 ± 1.3 µM | Minimum bactericidal and fungicidal concentrations (MBC, MFC) ([3]; Bc): –; Minimum bactericidal and fungicidal concentrations (MBC, MFC) (MRSA-1): –; Minimum Inhibitory Concentration (MIC) [5]: –; Minimum bactericidal and fungicidal concentrations (MBC, MFC) [5]: –; Minimum bactericidal and fungicidal concentrations (MBC, MFC) [6]: –; LD50 at 14 days [8]: 31.7 mg/kg; onset of animal death after administration (mice of the CD-1 line; CD-1 mice, i.p., doses of LD100): 1 to 2 h; acute toxicity class (mice of the CD-1 line; according to the classification [105], parenteral administration): moderately toxic; selectivity index (SI) (M-HeLa [9]; [29]): ns (ns—no selectivity); selectivity index (SI) (MCF-7 [10]; [29]): ns (ns—no selectivity); selectivity index (SI) (T98G [15]; [29]): ns (ns—no selectivity); selectivity index (SI) (Hep G2 [16]; [29]): ns (ns—no selectivity); selectivity index (SI) (DU-145 [18]; [29]): ns (ns—no selectivity); IC50 (A549 [23]): 64.1 ± 4.5 µM; IC50 (PC3 [24]): 44 ± 3.1 µM; IC50 (T98G [25]): 57.4 ± 4 µM; IC50 (Hep G2 [26]): 46.6 ± 3.3 µM; IC50 (SK-OV-3 [27]): 46.6 ± 3.5 µM; IC50 (DU-145 [28]): 26.2 ± 1.9 µM |
| CCCCCCCCC[P+](c1ccccc1)(N(CC)CC)N(CC)CC [5c, Bis(diethylamino)(nonyl)(phenyl)phosphonium iodide] | 3.9 ± 0.3 µM | 125 ± 10 µM | 3.9 ± 0.3 µM | 31.3 ± 2.2 µM | 500 ± 48 µM | 3.9 ± 0.3 µM | 3.9 ± 0.4 µM | 62.5 ± 5.4 µM | – | – | – | 1.5 | 1.5 | ns (ns—no selectivity) | ns (ns—no selectivity) | ns (ns—no selectivity) | 1.7 ± 0.1 µM | 3.1 ± 0.2 µM | 2.8 ± 0.3 µM | 2.8 ± 0.2 µM | MBC ([3]; Bacillus cereus, read-out: Minimum bactericidal and fungicidal concentrations (MBC, MFC)): 500 ± 48 µM; MBC (MRSA-1; Staphylococcus aureus, read-out: Minimum bactericidal and fungicidal concentrations (MBC, MFC)): 62.5 ± 5.5 µM; MIC ([5]; Escherichia coli, ATCC25922, read-out: Minimum Inhibitory Concentration (MIC)): 250 ± 19 µM; MBC ([5]; Escherichia coli, ATCC25922, read-out: Minimum bactericidal and fungicidal concentrations (MBC, MFC)): 500 ± 48 µM; MBC ([6]; Pseudomonas aeruginosa, ATCC9027, read-out: Minimum bactericidal and fungicidal concentrations (MBC, MFC)): > 500 µM; selectivity index (SI) (M-HeLa [9]; [30]): 2.4; selectivity index (SI) (MCF-7 [10]; [30]): 1.3; selectivity index (SI) (T98G [15]; [30]): 1.5; selectivity index (SI) (Hep G2 [16]; [30]): 1.8; selectivity index (SI) (DU-145 [18]; [30]): 4.6; IC50 (A549 [23]): 8.7 ± 0.7 µM; IC50 (PC3 [24]): 10 ± 0.9 µM; IC50 (T98G [25]): 2.7 ± 0.3 µM; IC50 (Hep G2 [26]): 2.3 ± 0.1 µM; IC50 (SK-OV-3 [27]): 14.8 ± 1.2 µM; IC50 (DU-145 [28]): 0.9 ± 0.07 µM |
